Measurements: US7875745B2, “Compounds having lysophosphatidic acid receptor antagonism and uses thereof” (Ono Pharmaceutical Co., Ltd., priority 2003, dated 2011)

Legend:
[1] = tested on: urethral pressure of rats; assay: Effect on urethral pressure of rats (in vivo); design: species or system rat; details: anesthetized male CD(SD)IGS rats, intravenous, dose of 0.1 mg/kg to 1 mg/kg
From the text: Effect on Urethral Pressure of Rats (in vivo):
Male CD(SD)IGS rats (Japan Charles River, 8 to 9-week-old at the use) were anesthetized by subcutaneous administration of urethane (1.2 g/kg). After dissection at the cervical midline, a jugular vein catheter for compound administration and an artery catheter for blood pressure measurement were inserted. Next, after dissection at the hypogastric midline, the urethra was ligated under the pubic bone. An urethra catheter for urethral pressure measurement was inserted into the urethra from the dissected the top of the bladder, and ligated and fixed at the bladder neck. Each of the urethra catheter and the artery catheter was connected with a pressure-transducer, and the urethral pressure and blood pressure were measured. […] Then, the test compound was intravenously administered, and the urethral pressure and blood pressure were measured for 20 minutes. […]
The test compound was administered at respective doses. […] For the evaluation of the effect of the test compound on the urethral pressure, the values subtracting the urethral pressure before the administration from the measured urethral pressures every 2 minutes after the administration were obtained and a graph of the change with time (decreased amount of the urethral pressure from the base line) was prepared.

human EDG-2 = target: T1, human EDG-2 (Homo sapiens, UniProt Q92633); assay: Evaluation of EDG-2 antagonistic activity by monitoring the change of intracellular calcium ion concentration; assay type: cell-based; details: CHO cells overexpressing human EDG-2 gene; LPA 100 nM; intracellular calcium (Fura2-AM)
T1 construct: expressed in transfected cells; host or cells: Chinese hamster ovary (CHO) cells
T1 sequence (Q92633 whole entry): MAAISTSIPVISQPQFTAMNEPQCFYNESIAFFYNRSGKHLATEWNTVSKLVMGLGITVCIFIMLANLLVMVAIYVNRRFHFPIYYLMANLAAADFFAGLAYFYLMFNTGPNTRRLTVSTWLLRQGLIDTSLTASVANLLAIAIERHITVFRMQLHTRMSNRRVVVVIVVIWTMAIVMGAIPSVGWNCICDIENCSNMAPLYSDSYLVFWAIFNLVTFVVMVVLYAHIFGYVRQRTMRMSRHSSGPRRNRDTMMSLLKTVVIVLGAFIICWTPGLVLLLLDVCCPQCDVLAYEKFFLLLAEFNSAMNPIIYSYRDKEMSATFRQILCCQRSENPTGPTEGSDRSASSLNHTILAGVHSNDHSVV
Method: Evaluation of EDG-2 Antagonistic Activity by Monitoring the Change of Intracellular Calcium Ion Concentration:
The EDG-2 antagonistic activity was evaluated by using Chinese hamster ovary (CHO) cells which overexpressed human EDG-2 gene. The EDG-2-expressing cells were cultured with Ham's F12 medium (manufactured by GIBCO BRL, No. 11765-047) containing 10% FBS (fetal bovine serum), penicillin/streptomycin and blasticidin (5 μg/ml). Firstly, in order to incorporate Fura2-AM (manufactured by Dojindo, No. 348-05831) into the cells, the cells were incubated in 5 μM Fura2-AM solution (10% FBS, 20 mM HEPES buffer (pH 7.4), 2.5 mM probenecid (manufactured by Sigma, No. P-8761)-containing Ham's F12 medium) at 37° C. for 60 minutes. […] A plate was set in a fluorescence drug screening system (manufactured by Hamamatsu Photonics K.K., FDSS-2000, FDSS-6000) and intracellular calcium ion concentration was measured for 30 seconds without stimulation, and a solution of the compound of present invention was added. Five minutes thereafter, LPA (final concentration: 100 nM) was added, and the intracellular calcium ion concentration before and after the addition at the interval of 3 seconds (excitation wavelength: 340 nm and 380 nm, fluorescence wavelength: 500 nm). […]

## COc1cc([C@@H](O)[C@@H](CCCc2ccccc2)Cc2ccc(CC(=O)O)cc2)cc(OC)c1OC [Example 20(2), (4-{(2S)-2-[(S)-hydroxy(3,4,5-trimethoxyphenyl)methyl]-5-phenylpentyl}phenyl)acetic acid]
[1]
  change of the urethral pressure after administration: significantly remarkable decrease of the urethral pressure
  maximum decreased amount of the urethral pressure, of the absolute value of the urethral pressure (pressure before administration - base line value after death): 30 to 40%
Human EDG-2
  IC50: 40 nM
